Data from ChEMBL document CHEMBL1201862, “PubChem BioAssay data set” (2004).
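Tested at 5 concentrations; 48 h exposure; 96-well plates; endpoints linearly interpolated, else capped at highest concentration. GI50: concentration for 50% inhibition of growth.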 Calls of active or inactive are those of the source. Rule as the data show it: active = GI50 up to about 1.1 µM and inactive = higher.

Columns and labels:
Test in all cases: DTP human tumour cell line panel, 48 h
[1] = test system: 786-0
[2] = test system: COLO 205
[3] = test system: HCT-15
[4] = test system: HOP-62
[5] = test system: HOP-92
[6] = test system: KM12
[7] = test system: LOX IMVI
[8] = test system: MCF7
[9] = test system: MDA-MB-435
[10] = test system: Malme-3M
[11] = test system: NCI-H226
[12] = test system: OVCAR-3
[13] = test system: OVCAR-8
[14] = test system: SN12C
[15] = test system: SNB-19
[16] = test system: SNB-75
[17] = test system: SW-620
[18] = test system: TK-10
[19] = test system: HCC 2998
[20] = test system: SK-MEL-28

Structure (SMILES) | GI50 [1] | GI50 [2] | GI50 [3] [µM] | GI50 [4] | GI50 [5] | GI50 [6] | GI50 [7] | GI50 [8] | GI50 [9] | GI50 [10] | GI50 [11] | GI50 [12] | GI50 [13] | GI50 [14] | GI50 [15] | GI50 [16] | GI50 [17] | GI50 [18] | GI50 [19] | GI50 [20]
COc1cc(/C=C2\N=C(c3ccccc3)N(c3ccc(S(=O)(=O)Nc4nccs4)cc3)C2=O)ccc1O | > 100 µM (inactive) | > 100 µM (inactive) | 57.5 | 61.8 µM (inactive) | 40.7 µM (inactive) | > 100 µM (inactive) | 40.3 µM (inactive) | 67.1 µM (inactive) | 95.3 µM (inactive) | > 100 µM (inactive) | 71 µM (inactive) | > 100 µM (inactive) | > 100 µM (inactive) | > 100 µM (inactive) | > 100 µM (inactive) | 62.8 µM (inactive) | 77.6 µM (inactive) | > 100 µM (inactive) | – | –
CCCCNC(=O)Nc1c(C(N)=O)c2n(c1C(=O)OCC)CCCCC2 | > 100 µM (inactive) | > 100 µM (inactive) | > 100 | > 100 µM (inactive) | > 100 µM (inactive) | > 100 µM (inactive) | > 100 µM (inactive) | > 100 µM (inactive) | > 100 µM (inactive) | – | 3.89 µM (inactive) | – | > 100 µM (inactive) | – | > 100 µM (inactive) | > 100 µM (inactive) | > 100 µM (inactive) | > 100 µM (inactive) | > 100 µM (inactive) | > 100 µM (inactive)
COC(=O)C[C@H](COCc1ccccc1)NC(=O)C[C@H](COCc1ccccc1)NC(=O)OC(C)(C)C | 20.4 µM (inactive) | > 100 µM (inactive) | 30.7 | 21.6 µM (inactive) | 23.7 µM (inactive) | 45.3 µM (inactive) | 53.3 µM (inactive) | 19.8 µM (inactive) | 34 µM (inactive) | 36.6 µM (inactive) | > 100 µM (inactive) | 27.7 µM (inactive) | 24.7 µM (inactive) | 26.4 µM (inactive) | 21.2 µM (inactive) | 25.1 µM (inactive) | 55.8 µM (inactive) | – | – | > 100 µM (inactive)
CC1=NN(c2nc(N)nc(CSCc3nc(N)nc(N(C)C)n3)n2)C(C)(C)C1 | > 100 µM (inactive) | > 100 µM (inactive) | > 100 | > 100 µM (inactive) | > 100 µM (inactive) | > 100 µM (inactive) | > 100 µM (inactive) | > 100 µM (inactive) | > 100 µM (inactive) | – | > 100 µM (inactive) | > 100 µM (inactive) | > 100 µM (inactive) | > 100 µM (inactive) | > 100 µM (inactive) | 60.5 µM (inactive) | > 100 µM (inactive) | > 100 µM (inactive) | > 100 µM (inactive) | > 100 µM (inactive)
Brc1cccc(C2(CCCC3(c4cccc(Br)n4)OCCO3)OCCO2)n1 | 59.7 µM (inactive) | > 100 µM (inactive) | > 100 | > 100 µM (inactive) | > 100 µM (inactive) | > 100 µM (inactive) | > 100 µM (inactive) | > 100 µM (inactive) | > 100 µM (inactive) | – | > 100 µM (inactive) | > 100 µM (inactive) | – | > 100 µM (inactive) | > 100 µM (inactive) | 23.9 µM (inactive) | > 100 µM (inactive) | > 100 µM (inactive) | > 100 µM (inactive) | > 100 µM (inactive)
OCC1OC(n2nc(-c3ccccc3)nc2-c2cnccn2)C(O)C(O)C1O (centres undefined) | > 100 µM (inactive) | > 100 µM (inactive) | > 100 | > 100 µM (inactive) | > 100 µM (inactive) | > 100 µM (inactive) | > 100 µM (inactive) | > 100 µM (inactive) | > 100 µM (inactive) | – | – | > 100 µM (inactive) | > 100 µM (inactive) | > 100 µM (inactive) | > 100 µM (inactive) | > 100 µM (inactive) | > 100 µM (inactive) | – | > 100 µM (inactive) | > 100 µM (inactive)
NCCCC[C@H](N)C(=O)Nc1ccc(-c2nc3ccccc3s2)cc1Cl | 3.05 µM (inactive) | 4.91 µM (inactive) | 5.68 | 13.2 µM (inactive) | 18.8 µM (inactive) | 2.97 µM (inactive) | 1.36 µM (inactive) | < 0.034 µM (active) | 4.9 µM (inactive) | 15.1 µM (inactive) | – | 0.247 µM (active) | 7.71 µM (inactive) | 14.6 µM (inactive) | 12.6 µM (inactive) | 9.77 µM (inactive) | 11.5 µM (inactive) | 0.0353 µM (active) | 0.681 µM (active) | 7.89 µM (inactive)
COc1ccc(OC)c2sc(N3C(=O)/C(=C/c4cccc([N+](=O)[O-])c4)N=C3c3ccccc3)nc12 | 49.7 µM (inactive) | > 100 µM (inactive) | 61.5 | 54.1 µM (inactive) | 94.2 µM (inactive) | 42.2 µM (inactive) | 23.1 µM (inactive) | 21.2 µM (inactive) | 23.9 µM (inactive) | > 100 µM (inactive) | – | 35.6 µM (inactive) | 28.5 µM (inactive) | > 100 µM (inactive) | > 100 µM (inactive) | 42.7 µM (inactive) | 23.7 µM (inactive) | 74 µM (inactive) | 45.5 µM (inactive) | 76 µM (inactive)
CSc1nc(-c2ccc(C)cc2)c(C#N)c(=O)[nH]1 | > 100 µM (inactive) | > 100 µM (inactive) | > 100 | > 100 µM (inactive) | 85.3 µM (inactive) | > 100 µM (inactive) | – | > 100 µM (inactive) | > 100 µM (inactive) | – | > 100 µM (inactive) | > 100 µM (inactive) | > 100 µM (inactive) | > 100 µM (inactive) | > 100 µM (inactive) | 43.7 µM (inactive) | > 100 µM (inactive) | > 100 µM (inactive) | > 100 µM (inactive) | > 100 µM (inactive)
O=C1C=CC(O)(C#CCO)C=C1 | 9.91 µM (inactive) | 6.85 µM (inactive) | 2.69 | 30.5 µM (inactive) | 2.59 µM (inactive) | 17.5 µM (inactive) | 10.5 µM (inactive) | 4.33 µM (inactive) | 12.4 µM (inactive) | – | 13.4 µM (inactive) | 17 µM (inactive) | 13.3 µM (inactive) | 15.9 µM (inactive) | 22 µM (inactive) | 21.3 µM (inactive) | 4.62 µM (inactive) | 13.1 µM (inactive) | 17.5 µM (inactive) | 12.9 µM (inactive)
COc1ccc(C2=C(OC(=O)N(C)C)c3cccn3-c3cc(Cl)ccc3S2)cc1 | > 10 µM (inactive) | > 10 µM (inactive) | > 10 | > 10 µM (inactive) | 6.78 µM (inactive) | > 10 µM (inactive) | > 10 µM (inactive) | 8.51 µM (inactive) | > 10 µM (inactive) | > 10 µM (inactive) | – | – | > 10 µM (inactive) | > 10 µM (inactive) | – | > 10 µM (inactive) | > 10 µM (inactive) | > 10 µM (inactive) | > 10 µM (inactive) | > 10 µM (inactive)
